In patent US7737112B2, “Composition for enzyme inhibition” (Onyx Therapeutics, Inc., priority 2004, dated 2010):

Key:
Assay type in all cases: physicochemical
[1] = room temperature stability of reconstituted peptide (b)/HPBCD drug product; settings: 100 μg/mL peptide (b)/HPBCD solid reconstituted in aqueous 0.9% (w/v) NaCl, sterile filtered
Procedure: The desired quantity of peptide (b) was weighed and dissolved in absolute ethanol at a concentration of 1 mg/mL. For each 1 mg of peptide (b) to be formulated, 1.3 g HPBCD was dissolved in absolute ethanol at a concentration of 10 mg/mL. This ethanol/HPBCD solution was then combined with the ethanol/peptide (b) solution, stirred 5 minutes at room temperature and then evaporated under reduced pressure (rotovapped) to yield a white solid. This solid was placed under high vacuum (ca. 1 mTorr) for 24 hrs, pulverized and then placed under high vacuum (ca. 1 mTorr) for another 4 hrs to yield dry solid. The final formulation was prepared by dissolving this solid drug product to a final concentration of 100 μg peptide (b)/mL solid drug product in ice cold USP grade aqueous 0.9% (w/v) NaCl followed by sterile filtration. Room temperature stability of the reconstituted drug product was ca. 12 hrs.

[2] = solubility of peptide epoxy ketones in cyclodextrin formulations
Procedure: 100 μg/mL peptide (b) was formulated in an aqueous solution containing 130 mg/mL hydroxypropyl beta cyclodextrin (HPBCD) and ca. 0.9% (w/v) NaCl.
2 mg/mL peptide (a) was formulated in an aqueous solution containing 10% (w/v) SBECD and 10 mM citric acid adjusted to pH 3.5 with 0.1 M aqueous sodium hydroxide.
(§1) Appropriate masses of SBECD and citric acid were added to a volume of WFI corresponding to approximately 75% that of the final formulation. This mixture was then stirred at room temperature until complete dissolution of the SBECD and citric acid was effected. An appropriate mass of peptide (a) was then added and the resulting mixture stirred at room temperature until the added peptide (a) was dissolved. A pH electrode was then immersed in the solution and, with rapid stirring, the pH was adjusted to 3.5 by slow addition of 0.1 M sodium hydroxide in WFI; slow addition of the sodium hydroxide solution with adequate stirring was necessary to prevent precipitation of peptide (a). With rapid stirring, the resulting solution was then diluted with WFI to a final peptide (a) concentration of 2.0 mg/mL. This solution was then sterile filtered to yield the final formulation.
Several other final pH values were used for the peptide (a)/SBECD formulations.

[3] = reconstitution of lyophilized (3x) peptide (a)/SBECD formulation
Procedure: 6 mg/mL peptide (a) was formulated in an aqueous solution containing 30% (w/v) SBECD and 30 mM citric acid adjusted to pH 3.5 with 0.5 M aqueous sodium hydroxide.
as §1, with “70%” for “approximately 75%”, “0.5” for “0.1”, “6.0” for “2.0”
The vials containing product were loaded onto the shelves and the temperature set for 5° C. for 2 hrs. […]
Reconstitution was effected by addition of 9.75 mL of WFI, USP to produce the desired fill volume within the vial of 10.5 mL. […] The pH measured was 3.5±0.1.

Row | Room temperature stability of the reconstituted drug product [1] | state of the solution at room temperature ([2]; 100 μg/mL in aqueous 130 mg/mL HPBCD, ca. 0.9% (w/v) NaCl, could not be made by simply dissolving) | solubility when formulated with a cyclodextrin [2] | time for dissolution on reconstitution ([3]; lyophilized 6 mg/mL peptide (a), 30% (w/v) SBECD, 30 mM citric acid pH 3.5, 9.75 mL WFI added, fill volume 10.5 mL) | pH measured after reconstitution ([3]; lyophilized peptide (a)/SBECD/citrate formulation reconstituted with WFI) | SMILES
1 | ca. 12 hrs | supersaturated (metastable) | significantly enhanced |  |  | CC(=O)N[C@@H](CCc1ccccc1)C(=O)N[C@@H](CC(C)C)C(=O)N[C@@H](Cc1ccccc1)C(=O)N[C@@H](CC(C)C)C(=O)[C@@]1(C)CO1 [peptide (b)]
2 |  |  | significantly enhanced | less than 2 minutes | 3.5±0.1 | CC(C)C[C@H](NC(=O)[C@H](CCc1ccccc1)NC(=O)CN1CCOCC1)C(=O)N[C@@H](Cc1ccccc1)C(=O)N[C@@H](CC(C)C)C(=O)[C@@]1(C)CO1 [peptide (a)]
